US20200289456A1, “METHODS FOR INHIBITING TUMORS AND DRUG RESISTANCE” (SEQUOIA PHARMACEUTICALS, INC., priority 2015, published 2020)

Tested on: tumors expressing high levels of CYP3A4
Test: Combination of Docataxel and an ICI in patients (21 day treatment cycle)
Type: in vivo
Experimental: The compound of formula IA (150 mg po qd) is administered to patients for the first 3 days of a 21 day treatment cycle. Escalating doses of Docataxel are administered IV beginning on day 4. Docataxel is dose-escalated at 15, 25, 40, and 50 mg/m^2, where the standard dose is 75 mg/m^2.

CCCCCCN(CCCN(CC(C)C)S(=O)(=O)c1ccc2occc2c1)C(=O)OC(C)(C)C [IA]
cancer cell kill in tumors expressing high levels of CYP3A4 (IA 150 mg po qd days 1-3, Docataxel IV from day 4): improves cancer cell kill
toxicity of Docataxel (IA 150 mg po qd days 1-3, lower dose of docataxel and lower Cmax while maintaining AUC): diminishes toxicity
variability in AUC and drug response of Docataxel (IA 150 mg po qd days 1-3 of 21 day cycle, Docataxel IV from day 4, 15-50 mg/m^2): decreases variability in AUC and drug response
